Laboratory results from ChEMBL document CHEMBL4376833, “Influence of Non-natural Cationic Amino Acids on the Biological Activity Profile of Innate Defense Regulator Peptides” (J Med Chem, 2019).
Calls of active or inactive are those of the source. No rule for the calls is given here. Non-standard residues stand in square brackets, D forms with d. Residues, ends and D or L forms follow the SMILES beside them. hArg = N=C(N)NCCCC[C@H](N)C(=O)O; Agb = N=C(N)NCC[C@H](N)C(=O)O; Agp = N=C(N)NC[C@H](N)C(=O)O; Orn = NCCC[C@H](N)C(=O)O; Dab = NCC[C@H](N)C(=O)O; Dap = NC[C@H](N)C(=O)O

Tests used:
[1] = system: Staphylococcus aureus; test: Antibiofilm activity against methicillin-resistant Staphylococcus aureus assessed as inhibition of biofilm formation incubated for overnight by crystal violet staining based microtiter plate assay; assay type: functional, organism-based
[2] = system: Staphylococcus aureus; test: Antibiofilm activity against methicillin-resistant Staphylococcus aureus assessed as inhibition of biofilm formation by measuring residual biofilm growth incubated for overnight at 10-fold dilution by crystal violet staining based microtiter plate assay relative to control; assay type: functional
[3] = system: Staphylococcus aureus; test: Antibacterial activity against methicillin-resistant Staphylococcus aureus assessed as alteration in bacterial growth incubated for overnight by microtiter plate based spectrophotometric analysis; assay type: functional, organism-based

Row | Compound | inhibition [1] | residual biofilm growth (% of control) [2] [%] | Activity [3]
1 | CC[C@H](C)[C@H](NC(=O)[C@H](CCCNC(=N)N)NC(=O)[C@@H](NC(=O)[C@H](C)NC(=O)[C@@H](NC(=O)[C@@H](NC(=O)[C@H](CC(C)C)NC(=O)[C@H](CCCNC(=N)N)NC(=O)[C@@H](N)C(C)C)[C@@H](C)CC)C(C)C)C(C)C)C(=O)N[C@@H](CN)C(=O)N[C@@H](CCCNC(=N)N)C(=O)N[C@@H](CCCNC(=N)N)C(N)=O (H-VRLIVAVRI[Dap]RR-NH2) | Dose-dependent effect | 15 | Active
2 | CC[C@H](C)[C@H](NC(=O)[C@H](CCCNC(=N)N)NC(=O)[C@@H](NC(=O)[C@H](C)NC(=O)[C@@H](NC(=O)[C@H](CCCCNC(=N)N)NC(=O)[C@H](CC(C)C)NC(=O)[C@H](CCCNC(=N)N)NC(=O)[C@@H](N)C(C)C)C(C)C)C(C)C)C(=O)N[C@@H](Cc1c[nH]c2ccccc12)C(=O)N[C@@H](CCCNC(=N)N)C(=O)N[C@@H](CCCNC(=N)N)C(N)=O (H-VRL[hArg]VAVRIWRR-NH2) | Dose-dependent effect | 107.6 | Active
3 | CC[C@H](C)[C@H](NC(=O)[C@H](CCCNC(=N)N)NC(=O)[C@@H](NC(=O)[C@H](C)NC(=O)[C@@H](NC(=O)[C@@H](NC(=O)[C@H](CC(C)C)NC(=O)[C@H](CCCNC(=N)N)NC(=O)[C@@H](N)C(C)C)[C@@H](C)CC)C(C)C)C(C)C)C(=O)N[C@@H](CNC(=N)N)C(=O)N[C@@H](CCCNC(=N)N)C(=O)N[C@@H](CCCNC(=N)N)C(N)=O (H-VRLIVAVRI[Agp]RR-NH2) | Dose-dependent effect | 102.9 | Active
4 | CC[C@H](C)[C@H](NC(=O)[C@H](CCCNC(=N)N)NC(=O)[C@@H](NC(=O)[C@H](C)NC(=O)[C@@H](NC(=O)[C@@H](NC(=O)[C@H](CC(C)C)NC(=O)[C@H](CCCNC(=N)N)NC(=O)[C@@H](N)CCN)[C@@H](C)CC)C(C)C)C(C)C)C(=O)N[C@@H](Cc1c[nH]c2ccccc12)C(=O)N[C@@H](CCCNC(=N)N)C(=O)N[C@@H](CCCNC(=N)N)C(N)=O (H-[Dab]RLIVAVRIWRR-NH2) | Dose-dependent effect | 14.2 | Active
5 | CC[C@H](C)[C@H](NC(=O)[C@H](CC(C)C)NC(=O)[C@H](CCCNC(=N)N)NC(=O)[C@@H](N)C(C)C)C(=O)N[C@H](C(=O)N[C@@H](C)C(=O)N[C@H](C(=O)N[C@@H](CCCNC(=N)N)C(=O)N[C@@H](CNC(=N)N)C(=O)N[C@@H](Cc1c[nH]c2ccccc12)C(=O)N[C@@H](CCCNC(=N)N)C(=O)N[C@@H](CCCNC(=N)N)C(N)=O)C(C)C)C(C)C (H-VRLIVAVR[Agp]WRR-NH2) | Dose-dependent effect | 104.1 | Active
6 | H-VRLIVAVRIWRK-NH2 | Dose-dependent effect | 6 | Active
7 | CC[C@H](C)[C@H](NC(=O)[C@H](CCCNC(=N)N)NC(=O)[C@@H](NC(=O)[C@H](C)NC(=O)[C@@H](NC(=O)[C@H](CNC(=N)N)NC(=O)[C@H](CC(C)C)NC(=O)[C@H](CCCNC(=N)N)NC(=O)[C@@H](N)C(C)C)C(C)C)C(C)C)C(=O)N[C@@H](Cc1c[nH]c2ccccc12)C(=O)N[C@@H](CCCNC(=N)N)C(=O)N[C@@H](CCCNC(=N)N)C(N)=O (H-VRL[Agp]VAVRIWRR-NH2) | Dose-dependent effect | 104.1 | Active
8 | CC[C@H](C)[C@H](NC(=O)[C@H](CCCNC(=N)N)NC(=O)[C@@H](NC(=O)[C@H](C)NC(=O)[C@@H](NC(=O)[C@H](CCNC(=N)N)NC(=O)[C@H](CC(C)C)NC(=O)[C@H](CCCNC(=N)N)NC(=O)[C@@H](N)C(C)C)C(C)C)C(C)C)C(=O)N[C@@H](Cc1c[nH]c2ccccc12)C(=O)N[C@@H](CCCNC(=N)N)C(=O)N[C@@H](CCCNC(=N)N)C(N)=O (H-VRL[Agb]VAVRIWRR-NH2) | Dose-dependent effect | 98.5 | Active
9 | CC[C@H](C)[C@H](NC(=O)[C@H](CCCNC(=N)N)NC(=O)[C@@H](NC(=O)[C@H](C)NC(=O)[C@@H](NC(=O)[C@@H](NC(=O)[C@H](CNC(=N)N)NC(=O)[C@H](CCCNC(=N)N)NC(=O)[C@@H](N)C(C)C)[C@@H](C)CC)C(C)C)C(C)C)C(=O)N[C@@H](Cc1c[nH]c2ccccc12)C(=O)N[C@@H](CCCNC(=N)N)C(=O)N[C@@H](CCCNC(=N)N)C(N)=O (H-VR[Agp]IVAVRIWRR-NH2) | Dose-dependent effect | 102.2 | Active
10 | CC[C@H](C)[C@H](NC(=O)[C@H](CCCNC(=N)N)NC(=O)[C@@H](NC(=O)[C@H](C)NC(=O)[C@@H](NC(=O)[C@H](CCCN)NC(=O)[C@H](CC(C)C)NC(=O)[C@H](CCCNC(=N)N)NC(=O)[C@@H](N)C(C)C)C(C)C)C(C)C)C(=O)N[C@@H](Cc1c[nH]c2ccccc12)C(=O)N[C@@H](CCCNC(=N)N)C(=O)N[C@@H](CCCNC(=N)N)C(N)=O (H-VRL[Orn]VAVRIWRR-NH2) | Dose-dependent effect | 36.9 | Active
11 | CC[C@H](C)[C@H](NC(=O)[C@H](CCCNC(=N)N)NC(=O)[C@@H](NC(=O)[C@H](C)NC(=O)[C@@H](NC(=O)[C@@H](NC(=O)[C@H](CC(C)C)NC(=O)[C@H](CCCNC(=N)N)NC(=O)[C@@H](N)C(C)C)[C@@H](C)CC)C(C)C)C(C)C)C(=O)N[C@@H](Cc1c[nH]c2ccccc12)C(=O)N[C@@H](CCCNC(=N)N)C(=O)N[C@@H](CCCCNC(=N)N)C(N)=O (H-VRLIVAVRIWR[hArg]-NH2) | Dose-dependent effect | 8.5 | Active
12 | CC[C@H](C)[C@H](NC(=O)[C@H](CCCNC(=N)N)NC(=O)[C@@H](NC(=O)[C@H](C)NC(=O)[C@@H](NC(=O)[C@@H](NC(=O)[C@H](CC(C)C)NC(=O)[C@H](CCCNC(=N)N)NC(=O)[C@@H](N)CCCN)[C@@H](C)CC)C(C)C)C(C)C)C(=O)N[C@@H](Cc1c[nH]c2ccccc12)C(=O)N[C@@H](CCCNC(=N)N)C(=O)N[C@@H](CCCNC(=N)N)C(N)=O (H-[Orn]RLIVAVRIWRR-NH2) | Dose-dependent effect | 12.2 | Active
13 | H-VRLIVAVRIRRR-NH2 | Dose-dependent effect | 33.2 | Active
14 | CC[C@H](C)[C@H](NC(=O)[C@H](CCCNC(=N)N)NC(=O)[C@@H](NC(=O)[C@H](CCCCNC(=N)N)NC(=O)[C@@H](NC(=O)[C@@H](NC(=O)[C@H](CC(C)C)NC(=O)[C@H](CCCNC(=N)N)NC(=O)[C@@H](N)C(C)C)[C@@H](C)CC)C(C)C)C(C)C)C(=O)N[C@@H](Cc1c[nH]c2ccccc12)C(=O)N[C@@H](CCCNC(=N)N)C(=O)N[C@@H](CCCNC(=N)N)C(N)=O (H-VRLIV[hArg]VRIWRR-NH2) | Dose-dependent effect | 19.7 | Active
15 | CC[C@H](C)[C@H](NC(=O)[C@H](CCCNC(=N)N)NC(=O)[C@@H](NC(=O)[C@H](C)NC(=O)[C@@H](NC(=O)[C@@H](NC(=O)[C@H](CC(C)C)NC(=O)[C@H](CCCNC(=N)N)NC(=O)[C@@H](N)CCCCNC(=N)N)[C@@H](C)CC)C(C)C)C(C)C)C(=O)N[C@@H](Cc1c[nH]c2ccccc12)C(=O)N[C@@H](CCCNC(=N)N)C(=O)N[C@@H](CCCNC(=N)N)C(N)=O (H-[hArg]RLIVAVRIWRR-NH2) | Dose-dependent effect | 17.1 | Active
16 | CC[C@H](C)[C@H](NC(=O)[C@H](CCNC(=N)N)NC(=O)[C@@H](NC(=O)[C@H](C)NC(=O)[C@@H](NC(=O)[C@@H](NC(=O)[C@H](CC(C)C)NC(=O)[C@H](CCCNC(=N)N)NC(=O)[C@@H](N)C(C)C)[C@@H](C)CC)C(C)C)C(C)C)C(=O)N[C@@H](Cc1c[nH]c2ccccc12)C(=O)N[C@@H](CCCNC(=N)N)C(=O)N[C@@H](CCCNC(=N)N)C(N)=O (H-VRLIVAV[Agb]IWRR-NH2) | Dose-dependent effect | 103.5 | Active
17 | CC[C@H](C)[C@H](NC(=O)[C@H](CCCNC(=N)N)NC(=O)[C@@H](NC(=O)[C@H](C)NC(=O)[C@@H](NC(=O)[C@@H](NC(=O)[C@H](CC(C)C)NC(=O)[C@H](CN)NC(=O)[C@@H](N)C(C)C)[C@@H](C)CC)C(C)C)C(C)C)C(=O)N[C@@H](Cc1c[nH]c2ccccc12)C(=O)N[C@@H](CCCNC(=N)N)C(=O)N[C@@H](CCCNC(=N)N)C(N)=O (H-V[Dap]LIVAVRIWRR-NH2) | Dose-dependent effect | 19.1 | Active
18 | CC[C@H](C)[C@H](NC(=O)[C@H](CN)NC(=O)[C@@H](NC(=O)[C@H](C)NC(=O)[C@@H](NC(=O)[C@@H](NC(=O)[C@H](CC(C)C)NC(=O)[C@H](CCCNC(=N)N)NC(=O)[C@@H](N)C(C)C)[C@@H](C)CC)C(C)C)C(C)C)C(=O)N[C@@H](Cc1c[nH]c2ccccc12)C(=O)N[C@@H](CCCNC(=N)N)C(=O)N[C@@H](CCCNC(=N)N)C(N)=O (H-VRLIVAV[Dap]IWRR-NH2) | Dose-dependent effect | 26.8 | Active
19 | CC[C@H](C)[C@H](NC(=O)[C@H](CCCNC(=N)N)NC(=O)[C@@H](NC(=O)[C@H](C)NC(=O)[C@@H](NC(=O)[C@@H](NC(=O)[C@H](CC(C)C)NC(=O)[C@H](CCCNC(=N)N)NC(=O)[C@@H](N)C(C)C)[C@@H](C)CC)C(C)C)C(C)C)C(=O)N[C@@H](CCN)C(=O)N[C@@H](CCCNC(=N)N)C(=O)N[C@@H](CCCNC(=N)N)C(N)=O (H-VRLIVAVRI[Dab]RR-NH2) | Dose-dependent effect | 90.8 | Active
20 | H-KRLIVAVRIWRR-NH2 | Dose-dependent effect | 12 | Active
